In patent US10022374B2, “Certain protein kinase inhibitors” (Shanghai Fochon Pharmaceutical Co., Ltd., priority 2013, dated 2018):
Like-named read-outs stand apart in the source and are kept apart here.

How the values were obtained:
A-375 cells = assay: Inhibition of cell proliferation (MTS), A-375 cells; assay type: cell-based; conditions: Homo sapiens, A-375, 72 h
Experimental: (§1) MTS testing kit was purchased from Promega. The DMEM, RPMI-1640 and Fetal bovine serum were purchased from Gibco. Dimethyl sulfoxide (DMSO) was purchased from Sigma.
(§2) To investigate whether a compound is able to inhibit the activity of MEK in cells, a mechanism-based assay using A-375 and HT-29 cell was developed. In this assay, inhibition of MEK was detected by the inhibition of A-375 and HT-29 cells proliferation. A-375 and HT-29 cells were cultured in culture flasks to 40-80% confluence respectively in DMEM and RPMI-1640 plus 10% fetal bovine serum. Cells were collected and plated onto 96-well plates at desired cell density (A-375: 3000 cells/well; HT-29: 5000 cells/well). Plates were incubated overnight at 37° C., with 5% CO2 to adhere. Compounds were added to the plates. The final compound concentrations were […], 12.35, 4.12, 1.37, 0.46 and 0.15 nM, respectively. Place plates at 37° C., with 5% CO2 for 72 h. 10 μl MTS were added to each well and incubate the plates for exactly 2 hours. Absorbance was measured at 490 nm. […] was calculated using GraphPad Prism 5.0.

HT-29 cells = assay: Inhibition of cell proliferation (MTS), HT-29 cells; assay type: cell-based; conditions: Homo sapiens, HT-29, 72 h
Experimental: as §1, §2

[1] = A-375 cells, 3000 cells/well, 72 h, MTS, absorbance 490 nm, read-out: A375 IC50
[2] = HT-29 cells, 5000 cells/well, 72 h, MTS, absorbance 490 nm, read-out: HT29 IC50

SMILES | IC50 (A-375 cells; [1]) [nM] | IC50 (HT-29 cells; [2]) [nM] | IC50 (A-375 cells; read-out: A375 IC50 (nM)) [nM] | IC50 (HT-29 cells; read-out: HT29 IC50 (nM)) [nM]
CC(=O)Nc1cccc(-c2nn(C3CC3)c(=O)c3c(Nc4ccc(I)cc4F)c(F)c(=O)n(C)c23)c1 [Example 1, N-(3-(6-cyclopropyl-3-fluoro-4-(2-fluoro-4-iodophenylamino)-1-methyl-2,5-dioxo-1,2,5,6-tetrahydropyrido[2,3-d]pyridazin-8-yl)phenyl)acetamide] |  |  | 1.2 | 2.4
Cn1c(=O)c(F)c(Nc2ccc(I)cc2F)c2c(=O)n(C3CC3)nc(-c3cccc(NC(=O)C4CC4)c3)c21 [Example 4, N-(3-(6-cyclopropyl-3-fluoro-4-(2-fluoro-4-iodophenylamino)-1-methyl-2,5-dioxo-1,2,5,6-tetrahydropyrido[2,3-d]pyridazin-8-yl)phenyl)cyclopropanecarboxamide] | 26.6 | 41.9 |  | 
CC(=O)Nc1cccc(-c2nn(C(C)C)c(=O)c3c(Nc4ccc(I)cc4F)c(F)c(=O)n(C)c23)c1 [Example 9, N-(3-(3-fluoro-4-(2-fluoro-4-iodophenylamino)-6-isopropyl-1-methyl-2,5-dioxo-1,2,5,6-tetrahydropyrido[2,3-d]pyridazin-8-yl)phenyl)acetamide] | 44 | 47.3 |  | 
CCC(=O)Nc1cccc(-c2nn(C(C)C)c(=O)c3c(Nc4ccc(I)cc4F)c(F)c(=O)n(C)c23)c1 [Example 10, N-(3-(3-fluoro-4-(2-fluoro-4-iodophenylamino)-6-isopropyl-1-methyl-2,5-dioxo-1,2,5,6-tetrahydropyrido[2,3-d]pyridazin-8-yl)phenyl)propionamide] | 61.2 | 59.6 |  | 
CC(C)C(=O)Nc1cccc(-c2nn(C(C)C)c(=O)c3c(Nc4ccc(I)cc4F)c(F)c(=O)n(C)c23)c1 [Example 11, N-(3-(3-fluoro-4-(2-fluoro-4-iodophenylamino)-6-isopropyl-1-methyl-2,5-dioxo-1,2,5,6-tetrahydropyrido[2,3-d]pyridazin-8-yl)phenyl)isobutyramide] | 198 | 180 |  | 
CC(C)n1nc(-c2cccc(NC(=O)C3CC3)c2)c2c(c(Nc3ccc(I)cc3F)c(F)c(=O)n2C)c1=O [Example 12, N-(3-(3-fluoro-4-(2-fluoro-4-iodophenylamino)-6-isopropyl-1-methyl-2,5-dioxo-1,2,5,6-tetrahydropyrido[2,3-d]pyridazin-8-yl)phenyl)cyclopropanecarboxamide] | 199 | 192 |  | 
CC(C)n1nc(-c2cccc(NS(C)(=O)=O)c2)c2c(c(Nc3ccc(I)cc3F)c(F)c(=O)n2C)c1=O [Example 13, N-(3-(3-fluoro-4-(2-fluoro-4-iodophenylamino)-6-isopropyl-1-methyl-2,5-dioxo-1,2,5,6-tetrahydropyrido[2,3-d]pyridazin-8-yl)phenyl)methanesulfonamide] | 26.2 | 87.4 |  | 
CC(C)n1nc(-c2cccc(NS(=O)(=O)C(C)C)c2)c2c(c(Nc3ccc(I)cc3F)c(F)c(=O)n2C)c1=O [Example 15, N-(3-(3-fluoro-4-(2-fluoro-4-iodophenylamino)-6-isopropyl-1-methyl-2,5-dioxo-1,2,5,6-tetrahydropyrido[2,3-d]pyridazin-8-yl)phenyl)propane-2-sulfonamide] | 34.9 | 152 |  | 
CC(=O)Nc1cccc(-c2nn(CC(O)CO)c(=O)c3c(Nc4ccc(I)cc4F)c(Cl)c(=O)n(C)c23)c1 (stereo not shown) [Example 39, N-(3-(3-chloro-6-(2,3-dihydroxypropyl)-4-((2-fluoro-4-iodophenyl)amino)-1-methyl-2,5-dioxo-1,2,5,6-tetrahydropyrido[2,3-d]pyridazin-8-yl)phenyl)acetamide] | 22.8 |  |  | 

More lines, main results first:

IC50 (A-375 cells; [1]) [nM] | IC50 (HT-29 cells; [2]) [nM] | SMILES | IC50 (A-375 cells; read-out: A375 IC50 (nM)) [nM] | IC50 (HT-29 cells; read-out: HT29 IC50 (nM)) [nM]
10.6 | 13.7 | CCC(=O)Nc1cccc(-c2nn(C3CC3)c(=O)c3c(Nc4ccc(I)cc4F)c(F)c(=O)n(C)c23)c1 [Example 2, N-(3-(6-cyclopropyl-3-fluoro-4-(2-fluoro-4-iodophenylamino)-1-methyl-2,5-dioxo-1,2,5,6-tetrahydropyrido[2,3-d]pyridazin-8-yl)phenyl)propionamide] |  | 
15.3 | 41.4 | CC(C)C(=O)Nc1cccc(-c2nn(C3CC3)c(=O)c3c(Nc4ccc(I)cc4F)c(F)c(=O)n(C)c23)c1 [Example 3, N-(3-(6-cyclopropyl-3-fluoro-4-(2-fluoro-4-iodophenylamino)-1-methyl-2,5-dioxo-1,2,5,6-tetrahydropyrido[2,3-d]pyridazin-8-yl)phenyl)isobutyramide] |  | 
4 | 5.1 | Cn1c(=O)c(F)c(Nc2ccc(I)cc2F)c2c(=O)n(C3CC3)nc(-c3cccc(NS(C)(=O)=O)c3)c21 [Example 5, N-(3-(6-cyclopropyl-3-fluoro-4-(2-fluoro-4-iodophenylamino)-1-methyl-2,5-dioxo-1,2,5,6-tetrahydropyrido[2,3-d]pyridazin-8-yl)phenyl)methanesulfonamide] |  | 
4.8 | 6.4 | CCS(=O)(=O)Nc1cccc(-c2nn(C3CC3)c(=O)c3c(Nc4ccc(I)cc4F)c(F)c(=O)n(C)c23)c1 [Example 6, N-(3-(6-cyclopropyl-3-fluoro-4-(2-fluoro-4-iodophenylamino)-1-methyl-2,5-dioxo-1,2,5,6-tetrahydropyrido[2,3-d]pyridazin-8-yl)phenyl)ethanesulfonamide] |  | 
3.5 | 4.1 | CC(C)S(=O)(=O)Nc1cccc(-c2nn(C3CC3)c(=O)c3c(Nc4ccc(I)cc4F)c(F)c(=O)n(C)c23)c1 [Example 7, N-(3-(6-cyclopropyl-3-fluoro-4-(2-fluoro-4-iodophenylamino)-1-methyl-2,5-dioxo-1,2,5,6-tetrahydropyrido[2,3-d]pyridazin-8-yl)phenyl)propane-2-sulfonamide] |  | 
5.4 | 5.4 | C=CCn1nc(-c2cccc(NS(=O)(=O)C3CC3)c2)c2c(c(Nc3ccc(I)cc3F)c(F)c(=O)n2C)c1=O [Example 8, N-(3-(6-allyl-3-fluoro-4-(2-fluoro-4-iodophenylamino)-1-methyl-2,5-dioxo-1,2,5,6-tetrahydropyrido[2,3-d]pyridazin-8-yl)phenyl)cyclopropanesulfonamide] |  | 
19.6 | 6.4 | CCS(=O)(=O)Nc1cccc(-c2nn(C(C)C)c(=O)c3c(Nc4ccc(I)cc4F)c(F)c(=O)n(C)c23)c1 [Example 14, N-(3-(3-fluoro-4-(2-fluoro-4-iodophenylamino)-6-isopropyl-1-methyl-2,5-dioxo-1,2,5,6-tetrahydropyrido[2,3-d]pyridazin-8-yl)phenyl)ethanesulfonamide] |  | 
19.4 | 31.5 | CC(C)n1nc(-c2cccc(NS(=O)(=O)C3CC3)c2)c2c(c(Nc3ccc(I)cc3F)c(F)c(=O)n2C)c1=O [Example 16, N-(3-(3-fluoro-4-(2-fluoro-4-iodophenylamino)-6-isopropyl-1-methyl-2,5-dioxo-1,2,5,6-tetrahydropyrido[2,3-d]pyridazin-8-yl)phenyl)cyclopropanesulfonamide] |  | 
20.8 |  | C=CCn1nc(-c2cccc(NC(C)=O)c2)c2c(c(Nc3ccc(I)cc3F)c(Cl)c(=O)n2C)c1=O [Example 38, N-(3-(6-allyl-3-chloro-4-(2-fluoro-4-iodophenylamino)-1-methyl-2,5-dioxo-1,2,5,6-tetrahydropyrido[2,3-d]pyridazin-8-yl)phenyl)acetamide] |  | 
